From patent US11566057B2, “Long-acting co-agonists of the glucagon and GLP-1 receptors” (Merck Sharp & Dohme Corp., priority 2017, dated 2023)
Where two headings read alike, the source gives them in different places. Numbered stars: 1 amine (or outer) side, 2 acyl side, 3 side chain; on linkers, the order of the positions; unused ones are H or OH. Square brackets hold non-standard residues; d marks the D form. Side chains are listed from the residue outwards. Peptide text beside a SMILES is read from it. * marks the point of attachment. C20 diacid = O=C(O)CCCCCCCCCCCCCCCCCCC(=O)*; Phe(4-CH2NH2) = NCc1ccc(C[C@H](N)C(=O)O)cc1; C18 diacid = O=C(O)CCCCCCCCCCCCCCCCC(=O)*; αMeW = C[C@](N)(Cc1c[nH]c2ccccc12)C(=O)O; C16 diacid = O=C(O)CCCCCCCCCCCCCCC(=O)*; γGlu = O=C(O)[C@H](CCC(=O)[*:2])N[*:1]; Met(O2) = CS(=O)(=O)CC[C@H](N)C(=O)O; αMeD = C[C@](N)(CC(=O)O)C(=O)O; αMeS = C[C@](N)(CO)C(=O)O; AEEA = NCCOCCOCC(=O)O; Aib = CC(C)(N)C(=O)O

What was measured:
[1] = molecular target: T1, human GCGR (Homo sapiens, UniProt P47871); assay: cAMP activity assay at the Glucagon receptor (GCGR); format: cell-based; conditions: for hGCGR/hGLP1R (hTone): ratio of GCGR EC50 to GLP1R EC50
T1 construct: expressed in transfected cells; growth medium holds Blasticidin and Hygromycin
In short: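 Peptides serially diluted from DMSO (10 points) and added to frozen-stock cells bearing human GLP1R (10,000 cells/well) or GCGR (30,000 cells/well), 1 h at RT, dark. EC50 by four-parameter logistic fit of HitHunter cAMPXS luminescence, read following overnight RT incubation.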

[2] = molecular target: T2, human GLP1R (Homo sapiens, UniProt P43220); assay: cAMP activity assay at the GLP-1 receptor (GLP1R); format: cell-based; conditions: summary statement: EC50 at each of the glucagon and GLP-1 receptors; read-out: EC50 at the GLP-1 receptor
T2 construct: expressed in transfected cells; growth medium holds Blasticidin and Hygromycin
Protocol: Activity of the peptides at the Glucagon receptor (GCGR) and GLP-1 receptor (GLP1R) was measured in a cAMP activity assay.
GCG/GLP-1 receptor co-agonist peptides were dissolved in 100% DMSO (dimethyl sulfoxide) and serially diluted to generate 10 point titrations. The peptide solutions were then transferred into 384-well assay plates (150 nL/well). Assay ready frozen cells expressing human GLP1R or human GCGR were suspended in growth media consisting of DMEM medium (GIBCO®), 10% FBS (GIBCO®), 1×NEAA(GIBCO®), 1×P/S (GIBCO®), 10 ug/mL Blasticidin (GIBCO®) and 200 μg/mL Hygromycin (GIBCO®). […] The cell suspensions (15 μL) were then added to the assay plates containing the peptide solutions (30,000 cells/well for human GCGR; 10,000 cells/well for human GLP1R). The cells were incubated for 1 hour at room temperature in the dark. Production of cAMP was determined using HitHunter™ cAMPXS kits (DiscoverX) following manufacturer protocol. The plates were incubated for overnight at room temperature in the dark. Luminescence was measured using an EnVision Multilabel plate reader (Perkin Elmer). Native GLP-1 and Glucagon (Bachem) are used as control peptides. EC50 values were calculated using uses a 4 parameter logistic fit based on the Levenberg-Marquardt algorithm.

[3] = cells expressing human GCGR, cAMP production, buffer with or without 20% human serum (not stated which), read-out: GCGR EC50 human
[4] = summary statement: EC50 at each of the glucagon and GLP-1 receptors, read-out: EC50 at the glucagon receptor

T1 sequence (P47871 26-477): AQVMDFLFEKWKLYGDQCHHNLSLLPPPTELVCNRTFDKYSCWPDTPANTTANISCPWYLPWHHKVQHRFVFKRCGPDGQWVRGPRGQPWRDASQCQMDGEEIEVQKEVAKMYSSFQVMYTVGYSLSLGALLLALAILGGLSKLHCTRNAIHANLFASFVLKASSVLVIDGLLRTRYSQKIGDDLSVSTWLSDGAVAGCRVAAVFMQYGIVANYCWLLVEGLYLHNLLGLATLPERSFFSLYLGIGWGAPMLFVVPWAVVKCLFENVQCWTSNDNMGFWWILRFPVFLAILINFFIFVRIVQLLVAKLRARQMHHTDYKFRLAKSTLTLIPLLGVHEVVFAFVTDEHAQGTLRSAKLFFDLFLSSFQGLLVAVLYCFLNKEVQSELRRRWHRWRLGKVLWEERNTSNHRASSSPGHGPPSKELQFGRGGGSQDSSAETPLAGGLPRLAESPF
T2 sequence (P43220 24-463): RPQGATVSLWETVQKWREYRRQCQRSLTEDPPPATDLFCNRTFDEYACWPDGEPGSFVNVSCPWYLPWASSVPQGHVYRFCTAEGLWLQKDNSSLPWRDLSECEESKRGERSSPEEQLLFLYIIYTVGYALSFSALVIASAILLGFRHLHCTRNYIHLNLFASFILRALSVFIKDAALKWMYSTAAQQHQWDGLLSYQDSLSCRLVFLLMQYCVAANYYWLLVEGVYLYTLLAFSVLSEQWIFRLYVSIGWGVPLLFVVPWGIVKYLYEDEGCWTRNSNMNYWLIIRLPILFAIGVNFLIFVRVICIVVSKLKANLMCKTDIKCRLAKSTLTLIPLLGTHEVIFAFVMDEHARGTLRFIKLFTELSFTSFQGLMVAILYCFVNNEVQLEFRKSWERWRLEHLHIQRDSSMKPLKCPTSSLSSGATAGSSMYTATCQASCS

| EC50 [1, 3] [nM] | hGCGR/hGLP1R (hTone) [1] | EC50 [1, 4] [nM] | EC50 [2] [nM] | SMILES |
| --- | --- | --- | --- | --- |
| 0.27 | 0.7 | < 5 | < 5 | CC(C)C[C@H](NC(=O)[C@H](Cc1ccc(O)cc1)NC(=O)[C@H](CCCCN)NC(=O)[C@H](CO)NC(=O)[C@H](Cc1ccc(O)cc1)NC(=O)[C@H](CC(=O)O)NC(=O)[C@H](CO)NC(=O)[C@@H](NC(=O)[C@H](Cc1ccccc1)NC(=O)[C@@H](NC(=O)CNC(=O)[C@H](CCC(N)=O)NC(=O)C(C)(C)NC(=O)[C@@H](N)Cc1c[nH]cn1)[C@@H](C)O)[C@@H](C)O)C(=O)N[C@@H](CC(=O)O)C(=O)N[C@@H](C)C(=O)N[C@@H](CCCNC(=N)N)C(=O)N[C@@H](C)C(=O)N[C@@H](C)C(=O)N[C@@H](CCCCNC(=O)COCCOCCNC(=O)COCCOCCNC(=O)CC[C@H](NC(=O)CCCCCCCCCCCCCCCCC(=O)O)C(=O)O)C(=O)N[C@@H](CCC(=O)O)C(=O)N[C@@H](Cc1ccccc1)C(=O)N[C@H](C(=O)N[C@@H](CCC(N)=O)C(=O)N[C@@H](Cc1c[nH]c2ccccc12)C(=O)N[C@@H](CC(C)C)C(=O)N[C@@H](CCS(C)(=O)=O)C(=O)N[C@@H](CC(=O)O)C(=O)N[C@H](C(N)=O)[C@@H](C)O)C(C)C [TP704] (H-H[Aib]QGTFTSDYSKYLDARAAK([AEEA-AEEA-γGlu-C18 diacid])EFVQWL[Met(O2)]DT-NH2; N-terminus assumed) |
| – | 1.6 | < 5 | < 5 | CC(C)C[C@H](NC(=O)[C@H](Cc1ccc(O)cc1)NC(=O)[C@H](CCCCN)NC(=O)[C@H](CO)NC(=O)[C@H](Cc1ccc(O)cc1)NC(=O)[C@H](CC(=O)O)NC(=O)[C@H](CO)NC(=O)[C@@H](NC(=O)[C@H](Cc1ccccc1)NC(=O)[C@@H](NC(=O)CNC(=O)[C@H](CCC(N)=O)NC(=O)C(C)(C)NC(=O)[C@@H](N)Cc1c[nH]cn1)[C@@H](C)O)[C@@H](C)O)C(=O)N[C@@H](CC(=O)O)C(=O)N[C@@H](C)C(=O)N[C@@H](CCCNC(=N)N)C(=O)N[C@@H](C)C(=O)N[C@@H](C)C(=O)N[C@@H](CCC(N)=O)C(=O)N[C@@H](CC(=O)O)C(=O)N[C@@H](Cc1ccccc1)C(=O)N[C@H](C(=O)N[C@@H](CCC(N)=O)C(=O)N[C@@H](Cc1c[nH]c2ccccc12)C(=O)N[C@@H](CC(C)C)C(=O)N[C@@H](CCS(C)(=O)=O)C(=O)N[C@@H](CCCCNC(=O)COCCOCCNC(=O)COCCOCCNC(=O)CC[C@H](NC(=O)CCCCCCCCCCCCCCCCCCC(=O)O)C(=O)O)C(=O)N[C@H](C(N)=O)[C@@H](C)O)C(C)C [TP603] (H-H[Aib]QGTFTSDYSKYLDARAAQDFVQWL[Met(O2)]K([AEEA-AEEA-γGlu-C20 diacid])T-NH2; N-terminus assumed) |
| 0.36 | 0.1 | < 5 | < 5 | CC(C)C[C@H](NC(=O)[C@H](Cc1ccc(O)cc1)NC(=O)[C@H](CCCCN)NC(=O)[C@H](CO)NC(=O)[C@H](Cc1ccc(O)cc1)NC(=O)[C@H](CC(=O)O)NC(=O)[C@H](CO)NC(=O)[C@@H](NC(=O)[C@H](Cc1ccccc1)NC(=O)[C@@H](NC(=O)CNC(=O)[C@H](CCC(N)=O)NC(=O)[C@](C)(CO)NC(=O)[C@@H](N)Cc1c[nH]cn1)[C@@H](C)O)[C@@H](C)O)C(=O)N[C@@H](CC(=O)O)C(=O)NC(C)(C)C(=O)N[C@@H](CCCNC(=N)N)C(=O)N[C@@H](C)C(=O)N[C@@H](C)C(=O)N[C@@H](CCCCNC(=O)COCCOCCNC(=O)COCCOCCNC(=O)CC[C@H](NC(=O)CCCCCCCCCCCCCCC(=O)O)C(=O)O)C(=O)N[C@@H](CC(=O)O)C(=O)N[C@@H](Cc1ccccc1)C(=O)N[C@H](C(=O)N[C@@H](CCC(N)=O)C(=O)N[C@@H](Cc1c[nH]c2ccccc12)C(=O)N[C@@H](CC(C)C)C(=O)N[C@@H](CCS(C)(=O)=O)C(=O)N[C@@](C)(CC(=O)O)C(=O)N[C@H](C(N)=O)[C@@H](C)O)C(C)C [TP618] (H-H[αMeS]QGTFTSDYSKYLD[Aib]RAAK([AEEA-AEEA-γGlu-C16 diacid])DFVQWL[Met(O2)][αMeD]T-NH2) |
| 0.46 | 0.2 | < 5 | < 5 | CC(C)C[C@H](NC(=O)[C@H](Cc1ccc(O)cc1)NC(=O)[C@H](CCCCN)NC(=O)[C@H](CO)NC(=O)[C@H](Cc1ccc(O)cc1)NC(=O)[C@H](CC(=O)O)NC(=O)[C@H](CO)NC(=O)[C@@H](NC(=O)[C@H](Cc1ccccc1)NC(=O)[C@@H](NC(=O)CNC(=O)[C@H](CCC(N)=O)NC(=O)C(C)(C)NC(=O)[C@@H](N)Cc1c[nH]cn1)[C@@H](C)O)[C@@H](C)O)C(=O)N[C@@H](CC(=O)O)C(=O)N[C@@H](C)C(=O)N[C@@H](CCCNC(=N)N)C(=O)N[C@@H](C)C(=O)N[C@@H](C)C(=O)N[C@@H](Cc1ccc(CNC(=O)COCCOCCNC(=O)CC[C@H](NC(=O)CCCCCCCCCCCCCCCCC(=O)O)C(=O)O)cc1)C(=O)N[C@@H](CC(=O)O)C(=O)N[C@@H](Cc1ccccc1)C(=O)N[C@H](C(=O)N[C@@H](CCC(N)=O)C(=O)N[C@@H](Cc1c[nH]c2ccccc12)C(=O)N[C@@H](CC(C)C)C(=O)N[C@@H](CC(C)C)C(=O)N[C@@H](CC(=O)O)C(=O)N[C@H](C(N)=O)[C@@H](C)O)C(C)C [TP635] (H-H[Aib]QGTFTSDYSKYLDARAA[Phe(4-CH2NH2)]([AEEA-γGlu-C18 diacid])DFVQWLLDT-NH2) |
| – | 1.4 | < 5 | < 5 | CC(C)C[C@H](NC(=O)[C@H](Cc1ccc(O)cc1)NC(=O)[C@H](CCCCN)NC(=O)[C@H](CO)NC(=O)[C@H](Cc1ccc(O)cc1)NC(=O)[C@H](CC(=O)O)NC(=O)[C@H](CO)NC(=O)[C@@H](NC(=O)[C@H](Cc1ccccc1)NC(=O)[C@@H](NC(=O)CNC(=O)[C@H](CCC(N)=O)NC(=O)C(C)(C)NC(=O)[C@@H](N)Cc1c[nH]cn1)[C@@H](C)O)[C@@H](C)O)C(=O)N[C@@H](CC(=O)O)C(=O)N[C@@H](C)C(=O)N[C@@H](CCCNC(=N)N)C(=O)N[C@@H](C)C(=O)N[C@@H](C)C(=O)N[C@@H](CCCCNC(=O)COCCOCCNC(=O)CC[C@H](NC(=O)CCCCCCCCCCCCCCCCCCC(=O)O)C(=O)O)C(=O)N[C@@H](CC(=O)O)C(=O)N[C@@H](Cc1ccccc1)C(=O)N[C@H](C(=O)N[C@@H](CCC(N)=O)C(=O)N[C@@H](Cc1c[nH]c2ccccc12)C(=O)N[C@@H](CC(C)C)C(=O)N[C@@H](CCS(C)(=O)=O)C(=O)N[C@@](C)(CC(=O)O)C(=O)N[C@H](C(N)=O)[C@@H](C)O)C(C)C [TP629] (H-H[Aib]QGTFTSDYSKYLDARAAK([AEEA-γGlu-C20 diacid])DFVQWL[Met(O2)][αMeD]T-NH2; N-terminus assumed) |
| 0.22 | 0.3 | < 5 | < 5 | CC(C)C[C@H](NC(=O)[C@H](Cc1c[nH]c2ccccc12)NC(=O)[C@H](CCC(N)=O)NC(=O)[C@@H](NC(=O)[C@H](Cc1ccccc1)NC(=O)[C@H](CC(=O)O)NC(=O)[C@H](CCCCNC(=O)COCCOCCNC(=O)COCCOCCNC(=O)CC[C@H](NC(=O)CCCCCCCCCCCCCCCCC(=O)O)C(=O)O)NC(=O)[C@H](C)NC(=O)[C@H](C)NC(=O)[C@H](CCCNC(=N)N)NC(=O)C(C)(C)NC(=O)[C@H](CC(=O)O)NC(=O)[C@H](CC(C)C)NC(=O)[C@H](Cc1ccc(O)cc1)NC(=O)[C@H](CCCCN)NC(=O)[C@H](CO)NC(=O)[C@H](Cc1ccc(O)cc1)NC(=O)[C@H](CC(=O)O)NC(=O)[C@H](CO)NC(=O)[C@@H](NC(=O)[C@H](Cc1ccccc1)NC(=O)[C@@H](NC(=O)CNC(=O)[C@H](CCC(N)=O)NC(=O)C(C)(C)NC(=O)[C@@H](N)Cc1c[nH]cn1)[C@@H](C)O)[C@@H](C)O)C(C)C)C(=O)N[C@@H](CCS(C)(=O)=O)C(=O)N[C@@H](CCC(=O)O)C(=O)N[C@H](C(N)=O)[C@@H](C)O [TP673] (H-H[Aib]QGTFTSDYSKYLD[Aib]RAAK([AEEA-AEEA-γGlu-C18 diacid])DFVQWL[Met(O2)]ET-NH2; N-terminus assumed) |
| – | 3.4 | < 5 | < 5 | CC(C)C[C@H](NC(=O)[C@H](Cc1ccc(O)cc1)NC(=O)[C@H](CCCCN)NC(=O)[C@H](CO)NC(=O)[C@H](Cc1ccc(CNC(=O)COCCOCCNC(=O)COCCOCCNC(=O)CC[C@H](NC(=O)CCCCCCCCCCCCCCCCC(=O)O)C(=O)O)cc1)NC(=O)[C@H](CC(=O)O)NC(=O)[C@H](CO)NC(=O)[C@@H](NC(=O)[C@H](Cc1ccccc1)NC(=O)[C@@H](NC(=O)CNC(=O)[C@H](CCC(N)=O)NC(=O)C(C)(C)NC(=O)[C@@H](N)Cc1c[nH]cn1)[C@@H](C)O)[C@@H](C)O)C(=O)N[C@@H](CC(=O)O)C(=O)N[C@@H](C)C(=O)N[C@@H](CCCNC(=N)N)C(=O)N[C@@H](C)C(=O)N[C@@H](C)C(=O)N[C@@H](CCC(N)=O)C(=O)N[C@@H](CC(=O)O)C(=O)N[C@@H](Cc1ccccc1)C(=O)N[C@H](C(=O)N[C@@H](CCC(N)=O)C(=O)N[C@@](C)(Cc1c[nH]c2ccccc12)C(=O)N[C@@H](CC(C)C)C(=O)N[C@@H](CCS(C)(=O)=O)C(=O)N[C@@H](CC(=O)O)C(=O)N[C@H](C(N)=O)[C@@H](C)O)C(C)C [TP625] (H-H[Aib]QGTFTSD[Phe(4-CH2NH2)]([AEEA-AEEA-γGlu-C18 diacid])SKYLDARAAQDFVQ[αMeW]L[Met(O2)]DT-NH2; N-terminus assumed) |
